Experimental data: patent US7288653B2, “Inhibitors of proton-gated cation channels and their use in the treatment of ischaemic disorders” (PainCeptor Pharma Corporation, priority 1999, dated 2007)
Where two headings read alike, the source gives them in different places.

Biological target: T1, naturally occurring proton-gated cation channel in a HEK293 cell (Homo sapiens, UniProt P78348)
T1 construct: a naturally occurring proton-gated cation channel in a HEK293 cell; endogenous in cells; host or cells: HEK293
T1 sequence (P78348 1-528): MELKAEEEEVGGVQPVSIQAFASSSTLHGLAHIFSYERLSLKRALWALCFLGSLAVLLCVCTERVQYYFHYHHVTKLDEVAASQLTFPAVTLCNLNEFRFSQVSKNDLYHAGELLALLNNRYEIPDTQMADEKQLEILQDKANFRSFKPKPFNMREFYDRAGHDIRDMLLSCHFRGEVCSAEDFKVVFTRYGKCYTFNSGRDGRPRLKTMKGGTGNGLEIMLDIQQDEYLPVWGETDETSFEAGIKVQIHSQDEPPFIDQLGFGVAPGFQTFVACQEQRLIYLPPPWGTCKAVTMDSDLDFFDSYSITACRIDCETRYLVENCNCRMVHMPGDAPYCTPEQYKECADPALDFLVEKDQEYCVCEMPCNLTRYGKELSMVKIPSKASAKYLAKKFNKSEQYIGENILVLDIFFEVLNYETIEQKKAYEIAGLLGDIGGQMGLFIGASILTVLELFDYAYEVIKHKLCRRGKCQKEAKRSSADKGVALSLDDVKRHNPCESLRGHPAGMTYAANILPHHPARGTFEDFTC
Experiment: Patch clamp of whole cell currents elicited by a drop in extracellular pH in HEK293 cells
Format: cell-based
Details: read-out: IC50, inhibition of the proton activated response
Description: In this example the current flux induced by protons over the membrane of a naturally occurring proton-gated cation channel in a HEK293 cell was determined using patch clamp techniques.
Using this technique, the effects of the compounds for use according to the invention was investigated on whole cell currents elicited by a drop in extracellular pH from 7.4 to 6.5.

[1] = extracellular pH drop from 7.4 to 6.5, group IC50 below 100 nM
[2] = extracellular pH drop from 7.4 to 6.5, group IC50 below 1 μM (of from 100 nM to 1 μM)
[3] = extracellular pH drop from 7.4 to 6.5, group IC50 below 10 μM (of from 1 μM to 10 μM)

SMILES	IC50 [1]	IC50 [2]	IC50 [3]
CCN1CCc2c(-c3ccccc3)cc3c(c2C1)N(C)C(=O)C3=NO [8-ethyl-5-phenyl-6-7-8-9-tetrahydro-1-methyl-pyrrolo-[3,2-h]-isoquinoline-2,3-dione-3-oxim]	–	< 1000 nM	–
O=C1Nc2c(cc(-c3ccccc3)c3c2CNCC3)C1=NO [5-phenyl-6-7-8-9-tetrahydro-1H-pyrrolo-[3,2-h]-isoquinoline-2,3-dione-3-oxim]	–	< 1000 nM	–
CN1Cc2c(-c3cccc4ccccc34)cc3c(c2C1)NC(=O)C3=NO [7-methyl-5-(1-naphthyl)-1-6-7-8-tetrahydrobenzo-[2,1-b:3,4-c]-dipyrrole-2,3-dione-3-oxime]	< 100 nM	–	–
CN1CCc2c(-c3ccc4ccccc4c3)cc3c(c2C1)NC(=O)C3=NO [5-(2-naphthyl)-8-methyl-6-7-8-9-tetrahydro-1-H-pyrrolo-[3.2-h]-isoquinoline-2,3-dione-3-oxim]	–	< 1000 nM	–
CN1CCc2c(-c3ccc(Cl)cc3)cc3c(c2C1)NC(=O)C3=NO [5-(4-chlorophenyl)-8-methyl-6-7-8-9-tetrahydro-1-H-pyrrolo-[3,2-h]-isoquinoline-2,3-dione-3-oxim]	< 100 nM	–	–
CCN1CCc2c(-c3ccccc3)cc3c(c2C1)N(C)C(=O)C3=NOC [8-ethyl-5-phenyl-6-7-8-9-tetrahydro-1-methyl-pyrrolo-[3,2-h]-isoquinoline-2,3-dione-3-O-methyloxim]	–	–	1000 to 10000 nM
CCN1Cc2c(-c3ccccc3)cc3c(c2C1)NC(=O)C3=NO [7-ethyl-5-phenyl-1-6-7-8-tetrahydrobenzo-[2,1-b:3,4-c]-dipyrrole-2,3-dione-3-oxime]	–	< 1000 nM	–
O=C1Nc2c(cc(-c3ccc(Cl)cc3)c3c2CCCC3)C1=NO [5-(4-chlorophenyl)-6-7-8-9-tetrahydro-1-H-pyrrolo-[3.2-h]-naphthalene-2,3-dione-3-oxim]	–	–	1000 to 10000 nM
CN1Cc2c(-c3ccccc3)cc3c(c2C1)NC(=O)C3=NO [7-methyl-5-phenyl-1-6-7-8-tetrahydrobenzo-[2,1-b:3,4-c]-dipyrrole-2,3-dione-3-oxime]	< 100 nM	< 1000 nM	–

Further lines, results first:

IC50 [1]	IC50 [2]	IC50 [3]	SMILES
< 100 nM	–	–	CCN1CCc2c(-c3ccccc3)cc3c(c2C1)NC(=O)/C3=N/O [8-ethyl-5-phenyl-6-7-8-9-tetrahydro-1H-pyrrolo-[3,2-h]-isoquinoline-2,3-dione-3-oxim]
–	< 1000 nM	–	COc1cccc(-c2cc3c(c4c2CCN(C)C4)NC(=O)/C3=N\O)c1 [8-methyl-5-(3-methoxyphenyl)-6-7-8-9-tetrahydro-1-H-pyrrolo-[3.2-h]-isoquinoline-2,3-dione-3-oxim]
–	–	1000 to 10000 nM	COC(=O)CN1CCc2c(-c3ccccc3)cc3c(c2C1)NC(=O)C3=NO [8-methoxycarbonylmethyl-5-phenyl-6,7,8,9-tetrahydro-1H-pyrrolo-[3,2-h]-isoquinoline-2,3-dione-3-oxime]
–	< 1000 nM	–	CN1CCc2c(-c3ccccc3)cc3c(c2C1)NC(=O)C3=NOC(=O)C(C)(C)C [8-methyl-5-phenyl-6-7-8-9-tetrahydro-1-H-pyrrolo-[3.2-h]-isoquinoline-2,3-dione-3-O-2,2-dimethylpropanoyl-oxim]
–	< 1000 nM	–	CN1CCc2c(-c3ccc(S(=O)(=O)N(C)C)cc3)cc3c(c2C1)NC(=O)C3=NO [8-methyl-5-(4-(N,N-dimethylsulfamoyl)-phenyl)-6,7,8,9-tetrahydro-1H-pyrrolo-[3,2-h]-isoquinoline-2,3-dione-3-oxime]
< 100 nM	–	–	CN1CCc2c(-c3ccc(F)cc3)cc3c(c2C1)NC(=O)C3=NO [8-methyl-5-(4-fluorophenyl)-6,7,8,9-tetrahydro-1H-pyrrolo-[3,2-h]-isoquinoline-2,3-dione-3-oxim]
–	–	1000 to 10000 nM	CN1CCc2c(-c3ccc([N+](=O)[O-])cc3)cc3c(c2C1)NC(=O)/C3=N\O [8-methyl-5-(4-nitrophenyl)-6,7,8,9-tetrahydro-1H-pyrrolo-[3,2-h]-isoquinoline-2,3-dione-3-oxim]
–	< 1000 nM	–	COc1ccccc1-c1cc2c(c3c1CCN(C)C3)NC(=O)/C2=N\O [8-methyl-5-(2-methoxyphenyl)-6-7-8-9-tetrahydro-1-H-pyrrolo-[3.2-h]-isoquinoline-2,3-dione-3-oxim]
